Patent US8119650B2, “Aminophenyl derivatives as novel inhibitors of histone deacetylase” (Janssen Pharmaceutica N.V., priority 2006, dated 2012)
In brackets after ≈: the same amount, converted by molar mass. Read-outs that look alike come from different tables or passages of the source.

Legend:
[1] = biological target: histone deacetylase (HeLa nuclear extracts); test: In vitro assay for inhibition of histone deacetylase with fluorescent-labelled substrate; assay type: biochemical; details: Fluor de Lys substrate
Excerpt: The in vitro assay for inhibition of histone deacetylase (see example C. 1) measures the inhibition of HDAC enzymatic activity obtained with the compounds of formula (I).
The HDAC Fluorescent Activity Assay/Drug Discovery Kit of Biomol (cat.No: AK-500-0001) was used. The HDAC Fluorescent Activity Assay is based on the Fluor de Lys (Fluorogenic Histone deAcetylase Lysyl) substrate and developer combination. The Fluor de Lys substrate, comprises an acetylated lysine side chain. Deacetylation of the substrate sensitizes the substrate so that, in the second step, treatment with the Fluor de Lys developer produces a fluorophore.
HeLa nuclear extracts (supplier: Biomol) were incubated at 60 μg/ml with 75 μM of substrate. The Fluor de Lys substrate was added in a buffer containing 25 mM Tris, 137 mM NaCl, 2.7 mM KCl and 1 mM MgCl2.6H2O at pH 7.4. After 30 min, 1 volume of the developer was added. The fluorophore was excited with 355 nm light and the emitted light (450 nm) was be detected on a fluorometric plate reader.
For each experiment, controls (containing HeLa nuclear extract and buffer), a blank incubation (containing buffer but no HeLa nuclear extract) and samples (containing compound dissolved in DMSO and further diluted in buffer and HeLa nuclear extract) were run in parallel. In first instance, compounds were tested at a concentration of 10^−5M. […] All sample were tested 4 times. In each test the blank value was substracted from both the control and the sample values. The control sample represented 100% of substrate deactylation. For each sample the fluorescence was expressed as a percentage of the mean value of the controls. […] Herein the effects of test compounds are expressed as pIC50 (the negative log value of the IC50-value) (see Table F-2).

[2] = system: A2780 ovarian carcinoma cells; test: Antiproliferative activity on A2780 cells (MTT); assay type: cell-based; details: Homo sapiens, 96 h, four days of incubation, read-out: Cellular activity pIC50 C.2 (converted)
Method: Cellular activity of the compounds of formula (I) was determined on A2780 tumour cells using a […] assay for cell toxicity or survival (Mosmann Tim, Journal of Immunological Methods 65: 55-63, 1983)(see example C.2).
All compounds tested were dissolved in DMSO and further dilutions were made in culture medium. Final DMSO concentrations never exceeded 0.1% (v/v) in cell proliferation assays. Controls contained A2780 cells and DMSO without compound and blanks contained DMSO but no cells. MTT was dissolved at 5 mg/ml in PBS. A glycine buffer comprised of 0.1 M glycine and 0.1 M NaCl buffered to pH 10.5 with NaOH (1 N) was prepared (all reagents were from Merck).
The human A2780 ovarian carcinoma cells (a kind gift from Dr. T. C. Hamilton [Fox Chase Cancer Centre, Pennsylvania, USA]) were cultured in RPMI 1640 medium supplemented with 2 mM L-glutamine, 50 μg/ml gentamicin and 10% fetal calf serum. Cells were routinely kept as monolayer cultures at 37° C. in a humidified 5% CO2 atmosphere. Cells were passaged once a week using a trypsin/EDTA solution at a split ratio of 1:40. All media and supplements were obtained from Life Technologies. Cells were free of mycoplasma contamination as determined using the Gen-Probe Mycoplasma Tissue Culture kit (supplier: BioMérieux).
Cells were seeded in NUNC™ 96-well culture plates (Supplier: Life Technologies) and allowed to adhere to the plastic overnight. Densities used for plating were 1500 cells per well in a total volume of 200 μl medium. After cell adhesion to the plates, medium was changed and drugs and/or solvents were added to a final volume of 200 μL Following four days of incubation, medium was replaced by 200 μl fresh medium and cell density and viability was assessed using an MTT-based assay. […] For each sample, the mean value for cell growth (in absorbance units) was expressed as a percentage of the mean value for cell growth of the control. […] Herein the effects of test compounds are expressed as pIC50 (the negative log value of the IC50-value) (see Table F-2).

[3] = Solubility at pH 2.3 (chemiluminescent nitrogen detector); assay type: physicochemical; details: pH 2.3, aqueous buffer; read-out: Solubility C.3.b. pH = 2.3
Method: The solubility of a compound measures the ability of a compound to stay in solution. In a first method the ability of a compound to stay in aqueous solution upon dilution (see example C.3.a) is measured. DMSO-stock solutions are diluted with a single aqueous buffer solvent in different consecutive steps. In this method, mixtures are then scanned in the BD Gentest Solubility Scanner for the occurrence of precipitation. In a second method the solubility of a compound at different pH's can be measured with the use of a Chemiluminescent Nitrogen Detector (see example C.3.b).
The solubility of a compound, at pH 2.3, can also be measured with the use of a chemiluminescent nitrogen detector (see Table F-2).

| SMILES | Enzymatic activity pIC50 C.1 [1] | IC50 [2] | further results |
| --- | --- | --- | --- |
| CCCO [propanol] |  |  | % metabolism (15 min incubation with microsomes, compound 5 μM): 25% |
| COc1cc(N)c(Cl)cc1C(=O)NC1CCN(CCCOc2ccc(F)cc2)CC1OC (centres unmarked) [Cisapride] |  |  | % metabolism (human, 15 min, 5 μM): 45% |
| CCCn1cc(CNCC2CCN(c3ncc(C(=O)Nc4ccccc4N)cn3)CC2)c2cc(F)ccc21 [Compound 3] | <6 | 1580 nM |  |
| CCCn1cc(CCNCC2CCN(c3ncc(C(=O)Nc4ccccc4N)cn3)CC2)c2cc(Cl)ccc21 [Compound 1] | <6 | 3160 nM |  |

Now from value to molecule, other results behind:

| Enzymatic activity pIC50 C.1 [1] | IC50 [2] | SMILES | further results |
| --- | --- | --- | --- |
| <6 |  | Nc1ccccc1NC(=O)c1cnc(N2CCC(CNCCc3c[nH]c4ccccc34)CC2)nc1 [Compound 4] |  |
| <6 |  | CS(=O)(=O)N(CCc1c[nH]c2ccccc12)CC1CCN(c2ncc(C(=O)Nc3ccccc3N)cn2)CC1 [Compound 5] |  |
| 4.8 | 100 nM | Cn1cc(CNCC2CCN(c3ncc(C(=O)Nc4ccccc4N)cn3)CC2)c2ccccc21 [Compound 2] | solubility [3]: 3700 µg/mL (≈ 7.88 mM) |
